Laboratory results as given in US20250221988A1 (Cullgen (Shanghai), Inc., priority 2022, published 2025).
pIC50: −log10 of the molar value. Like-named read-outs stand apart in the source and are kept apart here.

Experiments:
Type in all cases: cell-based
NCI-H1155 cells = assay: Cell viability assay in NCI-H1155 cells; conditions: Homo sapiens, read-out: NCI-H115 IC50
Method: (§1) Cell Culture: RS4;11, MV4;11, MOLM-13 and other cells were cultured at 37° C. with 5% CO2 in RPMI 1640 or DMEM Medium supplemented with 10% fetal bovine serum. Cells were authenticated using the short tandem repeat (STR) assays. Mycoplasma test results were negative.
Cell viability assays: Cells were seeded at a density of 5000 cells per well in 96-well assay plates and treated with test compounds following a 8-point or 12-point 3-fold serial dilution. Three days later, cell viability was determined using the CellTiter-Glo assay kit according to the manufacturer's instructions. The dose-response curves were determined and IC50 values were calculated using the GraphPad Prism software following a nonlinear regression (least squares fit) method.
The compounds were tested in HEL, 22RV1, NCI-H82 or NCI-H1155 cells.

MV4;11 cells = assay: Cell viability assay (CellTiter-Glo) in MV4;11 cells; conditions: read-out: MV4; for pIC50: compound alone, 11 IC50
How it was run: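 After three days' exposure to 3-fold serial compound dilutions (8 or 12 points), viability of cells seeded at 5000/well is read by CellTiter-Glo. Runs were done alone or combined with gilteritinib at 10 nM (MV4;11) or 20 nM (MOLM-13); IC50 from nonlinear regression.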

MOLM-13 cells = assay: Cell viability assay (CellTiter-Glo) in MOLM-13 cells; conditions: for pIC50: 72 h, compound alone, read-out: MOLM-13 IC50
GSPT1 = GSPT1 (Homo sapiens, UniProt P15170+Q96SW2); assay: Immunoblotting of GSPT1 in MOLM-13 cells; design: endogenous in cells; host or cells: MOLM-13; conditions: indicated concentrations, 16 hours
Chain of GSPT1 (P15170 whole entry): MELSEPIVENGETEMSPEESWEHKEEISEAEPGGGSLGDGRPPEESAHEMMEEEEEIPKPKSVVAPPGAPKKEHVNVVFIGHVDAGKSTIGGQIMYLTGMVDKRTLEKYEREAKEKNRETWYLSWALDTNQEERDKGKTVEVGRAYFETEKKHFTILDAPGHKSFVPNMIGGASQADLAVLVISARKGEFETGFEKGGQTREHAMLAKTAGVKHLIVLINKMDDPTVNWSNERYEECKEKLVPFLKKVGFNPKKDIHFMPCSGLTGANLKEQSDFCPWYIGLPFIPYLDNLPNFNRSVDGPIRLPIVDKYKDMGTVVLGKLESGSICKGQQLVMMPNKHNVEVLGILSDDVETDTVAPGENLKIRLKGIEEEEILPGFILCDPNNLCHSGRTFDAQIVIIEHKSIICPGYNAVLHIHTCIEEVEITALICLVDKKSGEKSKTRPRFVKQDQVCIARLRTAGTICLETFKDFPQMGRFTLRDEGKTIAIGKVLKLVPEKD
Chain of GSPT1 (Q96SW2 whole entry): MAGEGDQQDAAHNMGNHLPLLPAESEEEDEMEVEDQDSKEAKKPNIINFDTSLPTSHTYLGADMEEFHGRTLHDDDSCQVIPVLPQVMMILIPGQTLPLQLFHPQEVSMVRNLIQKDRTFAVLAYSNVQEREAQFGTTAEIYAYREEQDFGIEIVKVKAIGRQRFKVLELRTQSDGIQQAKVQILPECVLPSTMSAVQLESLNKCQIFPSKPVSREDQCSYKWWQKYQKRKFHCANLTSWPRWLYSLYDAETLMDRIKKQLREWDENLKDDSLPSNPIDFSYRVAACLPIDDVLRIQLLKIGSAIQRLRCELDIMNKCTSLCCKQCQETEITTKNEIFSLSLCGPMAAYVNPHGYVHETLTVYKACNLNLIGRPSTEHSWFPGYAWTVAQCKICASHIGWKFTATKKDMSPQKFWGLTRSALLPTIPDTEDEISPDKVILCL
Chain of GSPT1 (Q16531 whole entry partner): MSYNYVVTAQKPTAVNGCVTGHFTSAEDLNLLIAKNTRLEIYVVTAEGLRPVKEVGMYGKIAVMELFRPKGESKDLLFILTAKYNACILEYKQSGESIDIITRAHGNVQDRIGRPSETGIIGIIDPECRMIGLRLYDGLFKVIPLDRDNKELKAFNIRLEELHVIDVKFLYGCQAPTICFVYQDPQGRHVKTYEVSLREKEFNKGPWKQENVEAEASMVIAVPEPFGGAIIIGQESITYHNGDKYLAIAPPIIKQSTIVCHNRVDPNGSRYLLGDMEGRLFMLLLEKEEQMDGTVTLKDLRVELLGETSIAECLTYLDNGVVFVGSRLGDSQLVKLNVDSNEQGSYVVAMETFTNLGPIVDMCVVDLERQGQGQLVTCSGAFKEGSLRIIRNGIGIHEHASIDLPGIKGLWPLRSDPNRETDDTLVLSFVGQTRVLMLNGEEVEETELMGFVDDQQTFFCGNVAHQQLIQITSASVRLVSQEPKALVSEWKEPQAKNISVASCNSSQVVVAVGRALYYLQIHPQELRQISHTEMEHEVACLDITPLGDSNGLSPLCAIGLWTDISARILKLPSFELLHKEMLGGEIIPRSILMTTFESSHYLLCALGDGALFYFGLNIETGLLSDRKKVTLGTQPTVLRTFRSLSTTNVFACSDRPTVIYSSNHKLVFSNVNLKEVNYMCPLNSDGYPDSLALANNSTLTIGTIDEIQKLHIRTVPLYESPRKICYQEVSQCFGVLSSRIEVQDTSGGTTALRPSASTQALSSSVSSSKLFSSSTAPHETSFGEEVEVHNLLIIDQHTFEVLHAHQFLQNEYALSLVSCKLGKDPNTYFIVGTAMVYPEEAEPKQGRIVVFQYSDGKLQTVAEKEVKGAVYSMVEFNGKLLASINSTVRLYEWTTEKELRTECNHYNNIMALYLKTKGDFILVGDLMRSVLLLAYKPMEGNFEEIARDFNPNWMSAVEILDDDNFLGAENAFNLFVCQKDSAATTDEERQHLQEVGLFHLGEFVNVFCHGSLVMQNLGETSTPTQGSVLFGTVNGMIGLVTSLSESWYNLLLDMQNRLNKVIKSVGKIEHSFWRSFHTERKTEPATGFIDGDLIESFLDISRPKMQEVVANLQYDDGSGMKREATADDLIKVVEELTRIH
Method: as §1
Antibodies and reagents: Rabbit anti-FLT3 antibody (3462S) was purchased from Cell Signaling Technology. Rabbit anti-GSPT1 antibody (ab126090) was purchased from Abeam. HRP-conjugated anti-α-tubulin antibody was produced in house. Media and other cell culture reagents were purchased from Thermo Fisher. The CellTiter-Glo Luminescent Assay kit was purchased from Promega.
Immunoblotting: Cultured cells were washed with cold PBS once and lysed in cold RIPA buffer supplemented with protease inhibitors and phosphatase inhibitors (Beyotime Biotechnology). The solutions were then incubated at 4° C. for 30 minutes with gentle agitation to fully lyse cells. Cell lysates were centrifuged at 13,000 rpm for 10 minutes at 4° C. and pellets were discarded. Total protein concentrations in the lysates were determined by BCA assays (Beyotime Biotechnology). Cell lysates were mixed with Laemmli loading buffer to 1× and heated at 99° C. for 5 min. Proteins were resolved on SDS-PAGE and visualized by chemiluminescence. Images were taken by a ChemiDoc MP Imaging system (Bio-Rad). Protein bands were quantitated using the accompanied software provided by Bio-Rad.

[1] = Homo sapiens, MV4-11, 72 h, MV4;11 cells, three days
[2] = MV4;11 cells, with 10 nM gilteritinib, three days, 11 IC50 (nM) + 10 nM Gil
[3] = Homo sapiens, MOLM-13 cells, three days
[4] = MOLM-13 cells, with gilteritinib, three days, read-out: MOLM-13 IC50 (nM) + 10 nM Gil

SMILES	pIC50 (NCI-H1155 cells)	pIC50 (MV4;11 cells; [1])	IC50 (MV4;11 cells; [2]) [nM]	pIC50 (MOLM-13 cells; [3])	IC50 (MOLM-13 cells; [4]) [nM]	small molecule-mediated targeted degradation of GSPT1 (GSPT1)	IC50 (MV4;11 cells; Homo sapiens, MV4-11, 72 h, 11 IC50 (nM)) [nM]	IC50 (MV4;11 cells; 11 IC50 (nM) + 10 nM Gil, MV4;11 cells, with 10 nM gilteritinib, three days) [nM]	IC50 (MOLM-13 cells; Homo sapiens, MOLM-13, 72 h, read-out: MOLM-13 IC50 (nM)) [nM]	IC50 (MOLM-13 cells; read-out: MOLM-13 IC50 (nM) + 10 nM Gil, MOLM-13 cells, with gilteritinib, three days) [nM]
CNc1cccc(-c2cn([C@H]3C[C@H](CNc4ccc5c(c4)CN(C4CCC(=O)NC4=O)C5=O)C3)nc2C2CC2)n1 (relative stereo) [GS-811, 3-(5-(((Trans-3-(3-cyclopropyl-4-(6-(methylamino)pyridin-2-yl)-1H-pyrazol-1-yl)cyclobutyl)methyl)amino)-1-oxoisoindolin-2-yl)piperidine-2,6-dione]	7.00 to 8.00	–	–	–	–	–	–	–	–	–
O=C1CCC(N2C(=O)c3ccc(NC[C@H]4C[C@H](n5cc(-c6ncc(F)c7cccnc67)c(C6CC6)n5)C4)cc3C2=O)C(=O)N1 (stereo partly drawn) [GS-697, 5-(((Trans-3-(3-cyclopropyl-4-(5-fluoro-1,7-naphthyridin-8-yl)-1H-pyrazol-1-yl)cyclobutyl)methyl)amino)-2-(2,6-dioxopiperidin-3-yl)isoindoline-1,3-dione]	–	> 8.00	< 10	> 8.00	< 10	targeted degradation of GSPT1	–	–	–	–
Cn1ncc2ccc(-c3cn([C@H]4C[C@H](CNc5ccc6c(c5)C(=O)N(C5CCC(=O)NC5=O)C6=O)C4)nc3C3CC3)nc21 (stereo partly drawn) [GS-729, 5-(((Trans-3-(3-cyclopropyl-4-(1-methyl-1H-pyrazolo[3,4-b]pyridin-6-yl)-1H-pyrazol-1-yl)cyclobutyl)methyl)amino)-2-(2,6-dioxopiperidin-3-yl)isoindoline-1,3-dione]	–	7.00 to 8.00	< 10	7.00 to 8.00	< 10	targeted degradation of GSPT1	–	–	–	–
Cc1nc(-c2cn([C@H]3C[C@H](CNc4ccc5c(c4)CN(C4CCC(=O)NC4=O)C5=O)C3)nc2C2CC2)ccc1F (stereo partly drawn) [GS-731, 3-(5-(((Trans-3-(3-cyclopropyl-4-(5-fluoro-6-methylpyridin-2-yl)-1H-pyrazol-1-yl)cyclobutyl)methyl)amino)-1-oxoisoindolin-2-yl)piperidine-2,6-dione]	–	> 8.00	< 10	7.00 to 8.00	< 10	targeted degradation of GSPT1	–	–	–	–
O=C1CCC(N2C(=O)c3ccc(NCCC4CC5(C4)CC(n4nc(C6CC6)c6ccccc64)C5)cc3C2=O)C(=O)N1 (centres unmarked) [GS-783, 5-((2-(6-(3-Cyclopropyl-1H-indazol-1-yl)spiro[3.3]heptan-2-yl)ethyl)amino)-2-(2,6-dioxopiperidin-3-yl)isoindoline-1,3-dione]	–	7.00 to 8.00	10 to 100	7.00 to 8.00	10 to 100	–	–	–	–	–
Cn1nccc1Nc1cn([C@H]2C[C@H](CNc3ccc4c(c3)C(=O)N(C3CCC(=O)NC3=O)C4=O)C2)nc1C1CC1 (stereo partly drawn) [GS-784, 5-(((Trans-3-(3-cyclopropyl-4-((1-methyl-1H-pyrazol-5-yl)amino)-1H-pyrazol-1-yl)cyclobutyl)methyl)amino)-2-(2,6-dioxopiperidin-3-yl)isoindoline-1,3-dione]	–	6.00 to 7.00	10 to 100	6.00 to 7.00	100 to 1000	–	–	–	–	–
N[C@H]1C[C@@H](n2cc3cnc(-c4cn([C@H]5C[C@H](CNc6ccc7c(c6)C(=O)N(C6CCC(=O)NC6=O)C7=O)C5)nc4C4CC4)cc3n2)C1 (stereo partly drawn) [GS-785, 5-(((Trans-3-(4-(2-(cis-3-aminocyclobutyl)-2H-pyrazolo[4,3-c]pyridin-6-yl)-3-cyclopropyl-1H-pyrazol-1-yl)cyclobutyl)methyl)amino)-2-(2,6-dioxopiperidin-3-yl)isoindoline-1,3-dione]	–	> 8.00	< 10	7.00 to 8.00	< 10	–	–	–	–	–
N[C@H]1C[C@H](n2cc3cnc(-c4cn([C@H]5C[C@H](CNc6ccc7c(c6)C(=O)N(C6CCC(=O)NC6=O)C7=O)C5)nc4C4CC4)cc3n2)C1 (stereo partly drawn) [GS-786, 5-(((Trans-3-(4-(2-(trans-3-aminocyclobutyl)-2H-pyrazolo[4,3-c]pyridin-6-yl)-3-cyclopropyl-1H-pyrazol-1-yl)cyclobutyl)methyl)amino)-2-(2,6-dioxopiperidin-3-yl)isoindoline-1,3-dione]	–	> 8.00	< 10	7.00 to 8.00	< 10	–	–	–	–	–
Cc1nc(-c2cn([C@H]3C[C@H](COc4ccc5c(c4)CN(C4CCC(=O)NC4=O)C5=O)C3)nc2C2CC2)ccc1F (stereo partly drawn) [GS-787, 3-(5-((Trans-3-(3-cyclopropyl-4-(5-fluoro-6-methylpyridin-2-yl)-1H-pyrazol-1-yl)cyclobutyl)methoxy)-1-oxoisoindolin-2-yl)piperidine-2,6-dione]	–	< 6.00	–	< 6.00	–	–	–	–	–	–
O=C1CCC(N2Cc3cc(NC[C@H]4C[C@H](n5cc(-c6ncc(F)c7cccnc67)c(C6CC6)n5)C4)ccc3C2=O)C(=O)N1 (stereo partly drawn) [GS-788, 3-(5-(((Trans-3-(3-cyclopropyl-4-(5-fluoro-1,7-naphthyridin-8-yl)-1H-pyrazol-1-yl)cyclobutyl)methyl)amino)-1-oxoisoindolin-2-yl)piperidine-2,6-dione]	–	> 8.00	< 10	> 8.00	< 10	targeted degradation of GSPT1	–	–	–	–
O=C1CCC(N2C(=O)c3ccc(NC[C@H]4C[C@H](n5cc(-c6cc7nn([C@H]8CC[C@H](O)CC8)cc7cn6)c(C6CC6)n5)C4)cc3C2=O)C(=O)N1 (stereo partly drawn) [GS-789, 5-(((Trans-3-(3-cyclopropyl-4-(2-(trans-4-hydroxycyclohexyl)-2H-pyrazolo[4,3-c]pyridin-6-yl)-1H-pyrazol-1-yl)cyclobutyl)methyl)amino)-2-(2,6-dioxopiperidin-3-yl)isoindoline-1,3-dione]	–	> 8.00	< 10	> 8.00	< 10	–	–	–	–	–
Cn1cc2c(-c3cn([C@H]4C[C@H](CNc5ccc6c(c5)C(=O)N(C5CCC(=O)NC5=O)C6=O)C4)nc3C3CC3)ncc(F)c2n1 (stereo partly drawn) [GS-790, 5-(((Trans-3-(3-cyclopropyl-4-(7-fluoro-2-methyl-2H-pyrazolo[4,3-c]pyridin-4-yl)-1H-pyrazol-1-yl)cyclobutyl)methyl)amino)-2-(2,6-dioxopiperidin-3-yl)isoindoline-1,3-dione]	–	> 8.00	< 10	7.00 to 8.00	< 10	–	–	–	–	–
CC(C)n1ncc2c(-c3cn([C@H]4C[C@H](CNc5ccc6c(c5)C(=O)N(C5CCC(=O)NC5=O)C6=O)C4)nc3C3CC3)ncc(F)c21 (stereo partly drawn) [GS-791, 5-(((Trans-3-(3-Cyclopropyl-4-(7-fluoro-1-isopropyl-1H-pyrazolo[4,3-c]pyridin-4-yl)-1H-pyrazol-1-yl)cyclobutyl)methyl)amino)-2-(2,6-dioxopiperidin-3-yl)isoindoline-1,3-dione]	–	–	–	–	–	–	< 10	< 10	10 to 100	10 to 100
O=C1CCC(N2Cc3cc(NC[C@H]4C[C@H](n5cc(-c6ccc(F)c(C(F)F)n6)c(C6CC6)n5)C4)ccc3C2=O)C(=O)N1 (stereo partly drawn) [GS-802, 3-(5-(((Trans-3-(3-cyclopropyl-4-(6-(difluoromethyl)-5-fluoropyridin-2-yl)-1H-pyrazol-1-yl)cyclobutyl)methyl)amino)-1-oxoisoindolin-2-yl)piperidine-2,6-dione]	7.00 to 8.00	–	–	7.00 to 8.00	–	targeted degradation of GSPT1	–	–	–	–
Cc1nc(-c2cn([C@H]3C[C@H](CNc4ccc5c(c4)CN(C4CCC(=O)NC4=O)C5=O)C3)nc2C2CC2)c(F)cc1F (stereo partly drawn) [GS-809, 3-(5-(((trans-3-(3-cyclopropyl-4-(3,5-difluoro-6-methylpyridin-2-yl)-1H-pyrazol-1-yl)cyclobutyl)methyl)amino)-1-oxoisoindolin-2-yl)piperidine-2,6-dione]	> 8.00	–	–	–	–	–	–	–	–	–
Nc1cccc(-c2cn([C@H]3C[C@H](CNc4ccc5c(c4)CN(C4CCC(=O)NC4=O)C5=O)C3)nc2C2CC2)n1 (stereo partly drawn) [GS-810, 3-(5-(((Trans-3-(4-(6-aminopyridin-2-yl)-3-cyclopropyl-1H-pyrazol-1-yl)cyclobutyl)methyl)amino)-1-oxoisoindolin-2-yl)piperidine-2,6-dione]	7.00 to 8.00	–	–	–	–	–	–	–	–	–
